Measurements from PMC7889647 (Basic & clinical pharmacology & toxicology, 2020).

Target: hERG1a (human ether-a-go-go-related gene potassium channel, Kv11.1) (Homo sapiens, UniProt Q12809)
Type: cell-based

Chain of hERG1a (human ether-a-go-go-related gene potassium channel, Kv11.1) (Q12809 whole entry): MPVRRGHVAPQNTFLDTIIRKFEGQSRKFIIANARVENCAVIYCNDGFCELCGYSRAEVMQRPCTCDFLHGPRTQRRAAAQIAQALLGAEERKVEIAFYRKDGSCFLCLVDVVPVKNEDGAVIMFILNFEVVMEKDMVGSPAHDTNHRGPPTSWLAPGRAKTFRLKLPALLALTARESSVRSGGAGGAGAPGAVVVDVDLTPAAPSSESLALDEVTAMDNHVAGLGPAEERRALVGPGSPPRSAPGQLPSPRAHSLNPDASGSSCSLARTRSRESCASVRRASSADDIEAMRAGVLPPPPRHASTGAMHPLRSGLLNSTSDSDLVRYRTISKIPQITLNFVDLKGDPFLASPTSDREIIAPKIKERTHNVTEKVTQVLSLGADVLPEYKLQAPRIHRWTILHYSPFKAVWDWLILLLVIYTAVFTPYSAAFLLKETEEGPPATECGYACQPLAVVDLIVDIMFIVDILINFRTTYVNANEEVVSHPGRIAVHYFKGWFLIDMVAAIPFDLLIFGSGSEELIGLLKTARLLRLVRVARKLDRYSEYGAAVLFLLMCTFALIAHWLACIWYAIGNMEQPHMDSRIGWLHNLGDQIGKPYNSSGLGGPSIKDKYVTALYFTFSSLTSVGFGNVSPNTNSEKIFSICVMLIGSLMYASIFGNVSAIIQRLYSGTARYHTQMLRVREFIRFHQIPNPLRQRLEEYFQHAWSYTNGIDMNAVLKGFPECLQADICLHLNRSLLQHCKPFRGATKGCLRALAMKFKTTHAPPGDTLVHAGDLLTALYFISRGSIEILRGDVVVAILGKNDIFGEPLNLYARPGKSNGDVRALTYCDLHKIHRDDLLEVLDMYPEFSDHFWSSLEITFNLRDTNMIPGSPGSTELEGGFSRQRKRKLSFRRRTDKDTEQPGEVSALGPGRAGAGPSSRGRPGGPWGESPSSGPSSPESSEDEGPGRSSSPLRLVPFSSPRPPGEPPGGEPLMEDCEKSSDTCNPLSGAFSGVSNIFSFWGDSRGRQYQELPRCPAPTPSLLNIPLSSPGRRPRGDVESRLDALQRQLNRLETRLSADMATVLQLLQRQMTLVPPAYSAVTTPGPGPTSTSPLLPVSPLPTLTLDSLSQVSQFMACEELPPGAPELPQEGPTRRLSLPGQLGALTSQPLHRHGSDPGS

Q: N#Cc1ccc(C(c2ccc(C#N)cc2)n2cncn2)cc1 [letrozole] was tested. Which IC50 did it give?
A: Its IC50 is 373 nM.
